Laboratory results taken from publication PMC8282797, “Strictly regulated agonist-dependent activation of AMPA-R is the key characteristic of TAK-653 for robust synaptic responses and cognitive improvement” (Scientific Reports, 2021).
“Also recorded” adds a separate entry of the source. Where two headings read alike, the source gives them in different places.

Tested on: AMPA-R
Assay: Whole-cell patch clamp recording in acute PFC slices (AMPA-R-mediated EPSPs)
Assay type: cell-based, rat
Parameters: key to Synaptic EPSP response: -: No effect or slight effect; +: Potent; ++: Very potent
Conditions: for Synaptic EPSP response: summary grade; for Spike number and EPSP duration after switch from LY451646 (30 μM): 10 μM
Description: Coronal PFC slices were prepared from male Sprague–Dawley rats (10- to 14-day-old). The slices including layer V PFC pyramidal neurons were perfused at a flow rate of 1–2 ml/min with recording aCSF containing the following: 124 mM NaCl, 5 mM KCl, 1.2 mM NaH2PO4, 1.5 mM MgCl2, 2.5 mM CaCl2, 10 mM glucose, 24 mM NaHCO3 bubbled with carbogen (95% O2; 5% CO2). Current clamp recordings at holding potential of approximately − 65 mV with constant current were carried out at 32–33 °C using a pipette filled with an intracellular solution consisting of: 140 mM K-gluconate, 4 mM KCl, 10 mM HEPES, 0.2 mM EGTA, 4 mM MgATP, 0.3 mM Na2GTP, pH 7.3 with KOH in the presence of bicuculline (20 μM), CGP52422 (10 μM), and APV (50 μM) to block GABAA and B and NMDA receptors, respectively. Methods are described in the Supplementary Information.
Coronal prefrontal cortex (PFC) slices were prepared from male Sprague-Dawley rats (10- to 14-day-old). Animals were sacrificed following acute decapitation, and their brain was quickly removed and placed in an ice-cold modified artificial cerebrospinal fluid (aCSF) of the following composition: 92 mM N-methyl-D-glucamine (NMDG), 2.5 mM KCl, 1.25 mM NaH2PO4, 30 mM NaHCO3, 20 mM HEPES, 25 mM glucose, 2 mM thiourea, 5 mM Na-ascorbate, 3 mM Na-pyruvate, 0.5 mM CaCl2, and 10 mM MgSO4. The pH of the solution was titrated to 7.3-7.4 with concentrated HCl. Coronal slices were cut at a thickness of 300 μm with using a linear slicer PRO7 (Dosaka EM, Kyoto, Japan). Slices were initially recovered for ≤ 15 min at 34°C and then transferred to a holding chamber containing HEPES holding aCSF (92 mM NaCl, 2.5 mM KCl, 1.25 mM NaH2PO4, 30 mM NaHCO3, 20 mM HEPES, 25 mM glucose, 2 mM thiourea, 5 mM Na-ascorbate, 3 mM Na-pyruvate, 2 mM CaCl2 and 2 mM MgSO4) at room temperature for at least 1 h before starting the recording. The slices were then transferred to the recording chamber mounted on a FN1 microscope (Nikon, Tokyo, Japan), in which they were submerged and perfused at a flow rate of 1-2 ml/min with recording aCSF containing the following: 124 mM NaCl, 5 mM KCl, 1.2 mM NaH2PO4, 1.5 mM MgCl2, 2.5 mM CaCl2, 10 mM glucose, 24 mM NaHCO3. All aCSF solutions were continuously bubbled with carbogen (95% O2; 5% CO2). Differential interference contrast (DIC) microscopy (C10639, Hamamatsu, Japan) was used to visualize pyramidal neurons in the PFC. Patch pipettes (5-6 MΩ) were prepared from borosilicate capillary glass using a micropipette puller PC-10 (NARISHIGE, Tokyo, Japan). Current clamp recordings were carried out at 32-33°C using a pipette filled with intracellular solution consisting of: 140 mM K-gluconate, 4 mM KCl, 10 mM HEPES, 0.2 mM EGTA, 4 mM MgATP, 0.3 mM Na2GTP, pH 7.3 with KOH in the presence of bicuculline (20 μM), CGP52422 (10 μM), and APV (50 μM) to block GABAA and B and NMDA receptors, respectively. Signals were recorded using a Multiclamp 700B amplifier (Molecular Devices, LLC, Orleans Drive Sunnyvale, CA), digitized using a Digidata 1440A interface board, filtered between 2 kHz, sampled at 10 kHz, and analyzed with pClamp10 software. Layer V PFC pyramidal neurons were recorded at holding potential of approximately –65 mV with constant current. A hyperpolarizing step (–20 pA) prior to each stimulation was used to monitor any changes in access resistance. Postsynaptic potentials were evoked by constant current single stimulation pulses (100 μs, 10-100 μA) delivered with a 20-s interstimulus interval using monopolar stimulating electrodes positioned in layer I.

SMILES	Membrane potentials of recorded neurons (0.3 μM)	Polysynaptic EPSP duration and evoked spike number (0.3 μM, 5 min, membrane held at −65 mV)	Synaptic EPSP response	Membrane potentials of recorded neurons	Spike number and EPSP duration after switch from LY451646 (30 μM)	Suprathreshold response (10 μM for 10 min)	Spike number and EPSP duration after switch from LY451646 (30 μM) (listed as TAK653)	Suprathreshold polysynaptic EPSPs (evoked spikes, EPSP duration) (0.3 to 30 μM, 10 min bath application)
Cc1onc(O)c1CC(N)C(=O)O (stereo not drawn) [AMPA, alpha-amino-3-hydroxy-5-methyl-4-isoxazole-propionic acid]	increased	reduced; also recorded: diminished the suprathreshold response	─	–	–	–	–	–
CC1=CN2CCS(=O)(=O)N=C2C(c2ccc(OC3CCCCC3)cc2)=N1 [TAK-653, 9-[4-(Cyclohexyloxy)phenyl]-7-methyl-3,4-dihydropyrazino[2,1-c][1,2,4]thiadiazine 2,2-dioxide]	–	–	++	did not increase	a clear increase	enhanced the suprathreshold response	further augmentation of spike number	enhanced
